Read-outs that look alike come from different tables or passages of the source.
Assay: Simulated intestinal fluid (SIF) stability in the presence of various enzymes
Type: in vitro ADME
Conditions: 1 μM
Protocol: (§1) Studies were carried out in simulated intestinal fluid in the presence of various enzymes. Simulated intestinal fluid was prepared by dissolving 6.8 g of monobasic potassium phosphate in 1.0 L of water. Aliquots of this solution were taken and the pH was adjusted to 6.8. Individual enzymes were then spiked into aliquots for each experiment. A DMSO stock was first prepared for the test article. Aliquots of the DMSO solution were dosed into 700 μL of matrix, which had been pre-warmed to 37° C., at a final test article concentration of 1 μM. […] Samples were stored at 4° C. until the end of the experiment. After the final time point was sampled, the plate was mixed and then centrifuged at 3,000 rpm for 10 minutes. Calibration standards were prepared in matched matrix. […] Analytical conditions are outlined in Appendix 8-1.
as §1, with “10-1.” for “8-1.”
Studies were carried out in simulated intestinal fluid in the presence of various enzymes. Simulated intestinal fluid was prepared by dissolving 6.8 g of monobasic potassium phosphate in 1.0 L of water. Aliquots of this solution were taken and the pH was adjusted to 6.8. Individual enzymes were then spiked into aliquots for each experiment. A DMSO stock was first prepared for test article. Aliquots of the DMSO solution were dosed into 700 μL of matrix, which had been pre-warmed to 37° C., at a final test article concentration of 1 μM. […] Samples were stored at 4° C. until the end of experiment. After final time point was sampled, the plate was mixed and then centrifuged at 3,000 rpm for 10 minutes. Calibration standards were prepared in matched matrix. […] Analytical conditions are outlined in Appendix 13-1.
as §1, with “17-1.” for “8-1.”

[1] = SIF + Carboxypeptidase A, 0 min
[2] = SIF + Carboxypeptidase A, 15 min
[3] = SIF + Carboxypeptidase A, 30 min
[4] = SIF + Carboxypeptidase A, 60 min
[5] = SIF + Carboxypeptidase A, 120 min
[6] = SIF + Carboxypeptidase B, 0 min
[7] = SIF + Carboxypeptidase B, 15 min
[8] = SIF + Carboxypeptidase B, 30 min
[9] = SIF + Carboxypeptidase B, 60 min
[10] = SIF + Carboxypeptidase B, 120 min
[11] = simulated intestinal fluid with carboxypeptidase A, pH 6.8, SIF + Carboxypeptidase A, read-out: Half-life
[12] = simulated intestinal fluid with carboxypeptidase B, pH 6.8, SIF + Carboxypeptidase B, read-out: Half-life
[13] = simulated intestinal fluid with chymotrypsin, pH 6.8, SIF + Chymotrypsin, read-out: Half-life
[14] = simulated intestinal fluid with elastase, pH 6.8, SIF + Elastase, read-out: Half-life
[15] = simulated intestinal fluid with pancreatin, pH 6.8, SIF + Pancreatin, read-out: Half-life
[16] = simulated intestinal fluid with trypsin, pH 6.8, SIF + Trypsin, read-out: Half-life

| % Remaining of Initial (n = 1) [1] [%] | % Remaining of Initial (n = 1) [2] [%] | % Remaining of Initial (n = 1) [3] [%] | % Remaining of Initial (n = 1) [4] [%] | % Remaining of Initial (n = 1) [5] [%] | % Remaining of Initial (n = 1) [6] [%] | % Remaining of Initial (n = 1) [7] [%] | % Remaining of Initial (n = 1) [8] [%] | % Remaining of Initial (n = 1) [9] [%] | % Remaining of Initial (n = 1) [10] [%] | % Remaining of Initial (n = 1) (SIF + Chymotrypsin, 0 min) [%] | % Remaining of Initial (n = 1) (SIF + Chymotrypsin, 15 min) [%] | % Remaining of Initial (n = 1) (SIF + Chymotrypsin, 30 min) [%] | % Remaining of Initial (n = 1) (SIF + Chymotrypsin, 60 min) [%] | % Remaining of Initial (n = 1) (SIF + Chymotrypsin, 120 min) [%] | % Remaining of Initial (n = 1) (SIF + Elastase, 0 min) [%] | % Remaining of Initial (n = 1) (SIF + Elastase, 15 min) [%] | % Remaining of Initial (n = 1) (SIF + Elastase, 30 min) [%] | % Remaining of Initial (n = 1) (SIF + Elastase, 60 min) [%] | % Remaining of Initial (n = 1) (SIF + Elastase, 120 min) [%] | other results | SMILES |
| --- | --- | --- | --- | --- | --- | --- | --- | --- | --- | --- | --- | --- | --- | --- | --- | --- | --- | --- | --- | --- | --- |
| 100 | 30 | 10 | 4.1 | 3.9 | 100 | 33 | 14 | 5.7 | 2.2 | 100 | 42 | 23 | 13 | 15 | 100 | 44 | 14 | 3.8 | 3.5 | % Remaining of Initial (n = 1) (SIF + Pancreatin, 0 min): 100%; % Remaining of Initial (n = 1) (SIF + Pancreatin, 15 min): 40%; % Remaining of Initial (n = 1) (SIF + Pancreatin, 30 min): 19%; % Remaining of Initial (n = 1) (SIF + Pancreatin, 60 min): 6.5%; % Remaining of Initial (n = 1) (SIF + Pancreatin, 120 min): 2.7%; % Remaining of Initial (n = 1) (SIF + Trypsin, 0 min): 100%; % Remaining of Initial (n = 1) (SIF + Trypsin, 15 min): 66%; % Remaining of Initial (n = 1) (SIF + Trypsin, 30 min): 44%; % Remaining of Initial (n = 1) (SIF + Trypsin, 60 min): 38%; % Remaining of Initial (n = 1) (SIF + Trypsin, 120 min): 33%; half-life at 1 μM [11]: 0.147 h; half-life at 1 μM [12]: 0.167 h; half-life at 1 μM [13]: 0.233 h; half-life at 1 μM [14]: 0.2 h; half-life at 1 μM [15]: 0.2 h; half-life at 1 μM [16]: 0.833 h | CCCCCCCCCCCCCCCC(=O)NCCOC(=O)CCC(=O)OC[C@H]1O[C@@](CO)(O[C@H]2O[C@H](CO)[C@@H](O)[C@H](O)[C@H]2O)[C@@H](O)[C@@H]1O [Compound I-7] |
| 100 | 79 | 70 | 56 | 43 | 100 | 75 | 54 | 40 | 17 | 100 | 78 | 70 | 60 | 58 | 100 | 61 | 42 | 30 | 28 | % Remaining of Initial (n = 1) (SIF + Pancreatin, 0 min): 100%; % Remaining of Initial (n = 1) (SIF + Pancreatin, 15 min): 93%; % Remaining of Initial (n = 1) (SIF + Pancreatin, 30 min): 91%; % Remaining of Initial (n = 1) (SIF + Pancreatin, 60 min): 98%; % Remaining of Initial (n = 1) (SIF + Pancreatin, 120 min): 60%; % Remaining of Initial (n = 1) (SIF + Trypsin, 0 min): 100%; % Remaining of Initial (n = 1) (SIF + Trypsin, 15 min): 82%; % Remaining of Initial (n = 1) (SIF + Trypsin, 30 min): 72%; % Remaining of Initial (n = 1) (SIF + Trypsin, 60 min): 75%; % Remaining of Initial (n = 1) (SIF + Trypsin, 120 min): 46%; half-life at 1 μM [11]: 1.53 h; half-life at 1 μM [12]: 0.717 h; half-life at 1 μM (simulated intestinal fluid with chymotrypsin, pH 6.8, SIF + Chymotrypsin, outside the sampled time range, read-out: Half-life, calculated (in parentheses)): 2.4 h; half-life at 1 μM [13]: > 2 h; half-life at 1 μM [14]: 0.617 h; half-life at 1 μM (simulated intestinal fluid with pancreatin, pH 6.8, SIF + Pancreatin, outside the sampled time range, read-out: Half-life, calculated (in parentheses)): 3.42 h; half-life at 1 μM [15]: > 2 h; half-life at 1 μM (simulated intestinal fluid with trypsin, pH 6.8, SIF + Trypsin, outside the sampled time range, read-out: Half-life, calculated (in parentheses)): 2.02 h; half-life at 1 μM [16]: > 2 h | CCCCCCCCCCCCCCCC(=O)NCCOC(=O)CCC [Compound I-2] |
| 100 | 77 | 46 | 60 | 56 | 100 | 87 | 93 | 54 | 19 | 100 | 106 | 99 | 51 | 55 | 100 | 95 | 74 | 64 | 69 | % Remaining of Initial (n = 1) (SIF + Pancreatin, 0 min): 100%; % Remaining of Initial (n = 1) (SIF + Pancreatin, 15 min): 27%; % Remaining of Initial (n = 1) (SIF + Pancreatin, 30 min): 11%; % Remaining of Initial (n = 1) (SIF + Pancreatin, 60 min): 3.1%; % Remaining of Initial (n = 1) (SIF + Pancreatin, 120 min): 1.7%; % Remaining of Initial (n = 1) (SIF + Trypsin, 0 min): 100%; % Remaining of Initial (n = 1) (SIF + Trypsin, 15 min): 116%; % Remaining of Initial (n = 1) (SIF + Trypsin, 30 min): 87%; % Remaining of Initial (n = 1) (SIF + Trypsin, 60 min): 83%; % Remaining of Initial (n = 1) (SIF + Trypsin, 120 min): 123%; half-life at 1 μM (simulated intestinal fluid with carboxypeptidase A, pH 6.8, SIF + Carboxypeptidase A, outside the sampled time range, read-out: Half-life, calculated (in parentheses)): 2.23 h; half-life at 1 μM [11]: > 2 h; half-life at 1 μM [12]: 1.03 h; half-life at 1 μM [13]: 1.68 h; half-life at 1 μM (simulated intestinal fluid with elastase, pH 6.8, SIF + Elastase, outside the sampled time range, read-out: Half-life, calculated (in parentheses)): 3.08 h; half-life at 1 μM [14]: > 2 h; half-life at 1 μM [15]: 0.138 h; half-life at 1 μM [16]: > 2 h | CCCCC/C=C\C/C=C\CCCCCCCC(=O)OCCNC(=O)CCCCCCCCCCCCCCC [Compound I-6] |
